# Experimental data taken from paper PMC6843786, “Temporin-SHa and Its Analogs as Potential Candidates for the Treatment of Helicobacter pylori” (Biomolecules, 2019).
# Where two headings read alike, the source gives them in different places. Non-standard residues stand in square brackets, D forms with d. Residues, ends and D or L forms follow the SMILES beside them.
# Tests used:
# [1] = system: total lipids extracted from H. pylori (ATCC 43504); experiment: Lipid insertion assay (lipid monolayer, critical pressure of insertion); set-up: species or system biophysical; conditions: peptide 1 µM, PBS pH 7.4, from the line fits of Figure 4
# Protocol: Peptide-lipid interaction was measured using reconstituted lipid monolayer at the air-water interface as previously described. Total lipids were extracted from overnight cultures of H. pylori (ATCC 43504) using Folch extraction procedure as previously described. Extracted total lipids were dried, resolubilized in chloroform:methanol (2:1, v/v) and stored at -20 °C under nitrogen. For peptide-lipid interaction assay, total lipid extract was spread using a 50 μL Hamilton's syringe at the surface of 800 μL of sterile PBS creating a lipid monolayer at the air-water interface. Lipids were added until the surface pressure reached the desired value. […] The variation of the surface pressure caused by peptide injection was then continuously monitored using a fully automated microtensiometer (μTROUGH SX, Kibron Inc., Helsinki, Finland) until reaching equilibrium (maximal surface pressure increase being usually obtained after 15-25 min). […] Variation of surface pressure was plotted as a function of initial surface pressure and the critical pressure of insertion of each peptide into H. pylori lipids was calculated as the theoretical value of initial pressure of lipid monolayer not permissive to peptide insertion, i.e., giving a variation of pressure equal to 0 mN/m.
# [2] = system: clinical strains of H. pylori; conditions: for MIC: MH + 10% FBS + 2% isovitale-X
# Excerpt: (§1) H. pylori used in this study were either the reference strain obtained from the American Type Culture Collection (ATCC 43504) or clinical strains received frozen from our collaborator Josette Raymond from Hospital Cochin, Paris. Strains were obtained from patients who underwent a gastroendoscopy performed for various gastro-intestinal disorders according to the recommendations of Haute Autorité de Santé (HAS). During the endoscopy, biopsy samples were taken from antrum and corpus. Samples were then crushed, and the material was used for bacterial culture and molecular methods. An antibiogram was performed and strains were then frozen at -80 °C in a broth with 10% glycerol. Bacteria were cultured as previously described. Briefly, H. pylori (ATCC 43504) was cultured in brain heart infusion (BHI) and incubated at 37 °C for 16 h in microaerophilic condition in BD GasPak EZ using BD GasPak EZ CampyPak container system sachets (BD Biosciences, Le Pont-de-Claix, France). For clinical strains, a sample from the frozen bacteria was streaked on Blood Agar (Base) (Sigma-Aldrich, Illkirch-Graffenstaden, France) supplemented with 5% horse defibrinated blood (Fisher Scientific, Les Ulis, France) and 2% isovitale-X (Fisher Scientific, Illkirch-Graffenstaden, France). The petri dishes were then incubated at 37 °C for 4–7 days in microaerophilic condition. Then, a colony is transferred to 3 mL Mueller Hinton (MH) broth supplemented with 10% fetal bovine serum (FBS) and 2% isovitale-X. The cultures were then incubated for 4–7 days until the bacteria grow before further experiments.
# (§2) Briefly, after the growth of H. pylori in liquid culture the optical density (OD) of the bacterial suspensions were read at 600 nm and adjusted to one. Stock solutions of the peptides at 1 mM were prepared in sterile water. Bacteria were diluted in medium to reach bacterial density around 10^5 bacteria/mL. One-hundred microliters per well of bacterial suspension were then added into sterile polypropylene 96-well microplates (Greiner BioOne, Paris, France) and exposed to increasing concentrations of peptides (from zero to 100 µM, 1:2 serial dilution). […] Plates were incubated at 37 °C for 24 h for H. pylori (ATCC 43504) and for 4–7 days for the clinical strains. H. pylori was tested in microaerophilic conditions generated using micro-anaerobic BD GasPak system. At the end of the incubation, OD600nm was measured using microplate reader (Synergy Mx, Biotek, Colmar, France). The MIC was defined as the lowest concentration of drug that inhibited visible growth of the organism. Experiments were conducted in independent triplicate (n = 3).
# [3] = system: H. pylori (ATCC 43504)
# Excerpt: as §1, §2
# [4] = system: H. pylori (ATCC 43504); remark: listed apart in the source
# Protocol: as §2
# (§3) It is also rich with mucus to protect it from the aggressive acidity. For this reason, the impact of mucins and pepsin on the activity of the peptides was investigated. The impact of the gastric mucins on peptide activity was evaluated using a combination of commercial porcine stomach mucins MUC2 and MUC3 (Sigma–Aldrich) at a final concentration of 1 mg/mL sterilized using 0.2 µm filter. This concentration was used based on the estimated concentration of mucins present in the mucus in vivo [27]. The effect of mucins on peptides activity was evaluated by MIC and by time killing assay as explained below. The resistance of the peptides to pepsin was tested as previously described with some changes. […] This concentration was used since it corresponds the pepsin concentration in the stomach (0.5–1 mg/mL).
# [5] = system: N87 cells; experiment: In vitro toxicity assay using human gastric cells (resazurin); format: cell-based
# Protocol: [26] Human gastric cells N87 (ATCC CRL-5822) were cultured in RPMI-1640 medium supplemented with 10% fetal calf serum (FCS), 1% L-glutamine and 1% antibiotics (all from Invitrogen, Carlsbad, CA, USA) and were routinely seeded onto 25 cm^2 flasks maintained in a 5% CO2 incubator at 37 °C. For the toxicity assay, cells grown on 25 cm^2 flasks were detached using trypsin–EDTA solution (from Thermofisher), counted using Mallasez counting chamber and seeded into 96-well cell culture plates (Greiner Bio-one) at approximately 10^4 cells per well. The cells were left to grow for 48–72 h at 37 °C in a 5% CO2 incubator until they reached confluence. Plates were then aspirated and increasing concentrations of peptides were added to the cells for 48 h at 37 °C in a 5% CO2 incubator, volume of water corresponding to the volume of peptides being used as negative control. At the end of the incubation, wells were aspirated, and cell viability was evaluated using resazurin-based in vitro toxicity assay kit (Sigma-Aldrich) following manufacturer’s instructions. Briefly, resazurin stock solution was diluted 1:10 in sterile PBS containing calcium and magnesium (PBS^++, pH 7.4) and empty wells were filled with 100 µL of the diluted solution. After 4 h incubation at 37 °C, fluorescence intensity was measured using microplate reader (Synergy Mx, Biotek) with an excitation wavelength of 530 nm and an emission wavelength of 590 nm. The fluorescence values were normalized by the controls and expressed as percent viability.
# [6] = system: H. pylori (ATCC 43504); experiment: MIC after digestion by pepsin (resistance to pepsin); conditions: 4 h at 37 °C with pepsin 1 mg/mL in HCl pH 2
# Protocol: as §2, §3
# [7] = system: H. pylori (ATCC 43504); experiment: Membrane permeabilization assay (propidium iodide); conditions: not told
# Protocol: Bacterial membrane permeabilization was evaluated using the cell-impermeable DNA/RNA probe propidium iodide as previously explained. Logarithmic growing bacterial suspension of H. pylori (ATCC 43504) was prepared from overnight bacterial suspension after 1:10 dilution. After 3 h incubation at 37 °C, in microaerophilic condition, bacterial suspensions were centrifuged for 5 min at 3000× g. Cell pellets were then resuspended in sterile PBS at about […]. Propidium iodide (solution at 1 mg/mL, Sigma Aldrich) was then added to the suspension at a final concentration of 60 µM. 100 µL of this suspension were then transferred into 96-well black plates and were exposed to increasing concentrations of peptides obtained by serial dilution (from zero to 100 µM, 1:2 dilution). […] Kinetics of fluorescence variations (excitation at 530 nm and emission at 590 nm) were then recorded over 240 min of incubation at 37 °C in micro-aerobic condition using a microplate reader (Biotek, Synergy Mx). The effect of the peptides on the membrane integrity was expressed in percentage of permeabilization, CTAB at 300 µM being used as positive control giving 100% permeabilization. All experiments were done in triplicate.
smiles,measurement,setting,value
"CC[C@H](C)[C@H](NC(=O)[C@@H](C)NC(=O)[C@H](CO)NC(=O)[C@H](CC(C)C)NC(=O)[C@@H](N)Cc1ccccc1)C(=O)N[C@H](C(=O)NCC(=O)N[C@@H](CCSC)C(=O)N[C@@H](CC(C)C)C(=O)NCC(=O)N[C@@H](CCCCN)C(=O)N[C@@H](CC(C)C)C(=O)N[C@@H](Cc1ccccc1)C(N)=O)C(C)C [NST2, H-Phe^1-Leu^2-Ser^3-D-Ala^4-Ile^5-Val^6-Gly^7-Met^8-Leu^9-Gly^10-Lys^11-Leu^12-Phe^13-NH2] (H-FLS[dA]IVGMLGKLF-NH2)",critical pressure of insertion (CPI),[1],37.86 mN/m
same,MIC values against resistant clinical strains (span over all strains),"[2]; all resistant clinical strains, MH + 10% FBS",50 to 100 µM
same,MIC,"[2]; clinical strain BM18, resistance Clari/Metro",50 µM
same,MIC,"[2]; clinical strain EM68, resistance Clari/Metro",100 µM
same,MIC,"[2]; clinical strain LN18, resistance Clari",50 µM
same,MIC,"[2]; clinical strain MF76, resistance Clari/Metro",50 µM
same,MIC,"[2]; clinical strain MP78, resistance Clari/Metro",50 µM
same,MIC,"[2]; clinical strain MS67, resistance Clari/Metro",50 µM
same,MIC,"[2]; clinical strain NM44, resistance Clari/Metro",50 µM
same,MIC on H. pylori (ATCC 43504),"[3]; MH medium, 24 h, microaerophilic",12.5 µM
same,MIC on H. pylori (ATCC 43504) in MH supplemented with 10% FBS,[3]; MH supplemented with 10% FBS,50 µM
same,reduction in the antibacterial activity compared to temporin-SHa,[3]; from MIC on H. pylori (ATCC 43504),4 times
same,increase of MIC in the presence of mucins,[4]; MUC2 and MUC3 at 1 mg/mL versus no mucins,two
same,MIC in the Presence of mucins,[4]; porcine gastric mucins MUC2 and MUC3 at 1 mg/mL,25 µM
same,IC50,"[5]; 48 h incubation, resazurin cell viability, read-out: IC50 on N87 Cells",1250 ± 240 µM
same,increase in toxicity to human gastric cells compared to temporin-SHa,[5]; from IC50 on N87 cells,around 1.2 fold
same,MIC after Digestion by Pepsin,[6],>50 µM
"CC[C@H](C)[C@H](NC(=O)[C@H](C)NC(=O)[C@H](CO)NC(=O)[C@H](CC(C)C)NC(=O)[C@@H](N)Cc1ccccc1)C(=O)N[C@H](C(=O)NCC(=O)N[C@@H](CCSC)C(=O)N[C@@H](CC(C)C)C(=O)N[C@@H](C)C(=O)N[C@@H](CCCCN)C(=O)N[C@@H](CC(C)C)C(=O)N[C@@H](Cc1ccccc1)C(N)=O)C(C)C [NSTL7, H-Phe^1-Leu^2-Ser^3-L-Ala^4-Ile^5-Val^6-Gly^7-Met^8-Leu^9-L-Ala^10-Lys^11-Leu^12-Phe^13-NH2] (H-FLSAIVGMLAKLF-NH2)",critical pressure of insertion (CPI),[1],not able to insert at all
same,MIC on H. pylori (ATCC 43504),"[3]; ATCC 43504, 24 h",50 µM
same,IC50,[5]; 48 h,2290 ± 762 µM
same,membrane permeabilization of H. pylori (ranking in words),[7],weakest permeabilization effect
"CC[C@H](C)[C@H](NC(=O)[C@@H](C)NC(=O)[C@H](CO)NC(=O)[C@H](CC(C)C)NC(=O)[C@@H](N)Cc1ccccc1)C(=O)N[C@H](C(=O)N[C@H](C)C(=O)N[C@@H](CCSC)C(=O)N[C@@H](CC(C)C)C(=O)N[C@H](C)C(=O)N[C@@H](CCCCN)C(=O)N[C@@H](CC(C)C)C(=O)N[C@@H](Cc1ccccc1)C(N)=O)C(C)C [NST5, H-Phe^1-Leu^2-Ser^3-D-Ala^4-Ile^5-Val^6-D-Ala^7-Met^8-Leu^9-D-Ala^10-Lys^11-Leu^12-Phe^13-NH2] (H-FLS[dA]IV[dA]ML[dA]KLF-NH2)",critical pressure of insertion (CPI),[1],33.99 mN/m
same,MIC on H. pylori (ATCC 43504),"[3]; ATCC 43504, 24 h",100 µM
same,increase in toxicity to human gastric cells compared to temporin-SHa,[5],twice
same,IC50,[5]; 48 h,762 ± 235 µM
same,membrane permeabilization of H. pylori (ranking in words),[7],weakest permeabilization effect
